Two molecules from PMC2804909 (Journal of medicinal chemistry, 2010) can be followed below.

One assay has as its target HiOASS-A (Haemophilus influenzae, UniProt P45040). Put plainly: biochemical.
The target of assay [1] is T1, MNLNI (SAT C-terminal pentapeptide) (Haemophilus influenzae).
T1 chain: MNLNI
Put plainly: fluorescence titration.

No end group written: not given here.

A word on the Kd: it is a measure of binding affinity in units of concentration. In the case of MNENI [MNENI], on HiOASS-A, the dissociation constant Kd is ~7 mM.

B1: HiOASS-A (protein)
chain: MAIYADNSYSIGNTPLVRLKHFGHNGNVVVKIEGRNPSYSVKCRIGANMVWQAEKDGTLTKGKEIVDATSGNTGIALAYVAAARGYKITLTMPETMSLERKRLLCGLGVNLVLTEGAKGMKGAIAKAEEIVASDPSRYVMLKQFENPANPQIHRETTGPEIWKDTDGKVDVVVAGVGTGGSITGISRAIKLDFGKQITSVAVEPVESPVISQTLAGEEVKPGPHKIQGIGAGFIPKNLDLSIIDRVETVDSDTALATARRLMAEEGILAGISSGAAVAAADRLAKLPEFADKLIVVILPSASERYLSTALFEGIEG
On to B1, for which the dissociation constant (Kd) in assay [1] worked out at 0.044 mM.
